Tests used:
[1] = Superoxide anion (O2-) scavenging activity
[2] = Compound was evaluated for hydroxyl radical (OH) scavenging activity
[3] = target: Xanthine dehydrogenase/oxidase (Homo sapiens, UniProt P47989); assay: Compound was evaluated for inhibition of xanthine oxidase; design: concentration or dose not given beside the values
Chain of Xanthine dehydrogenase/oxidase (P47989 whole entry): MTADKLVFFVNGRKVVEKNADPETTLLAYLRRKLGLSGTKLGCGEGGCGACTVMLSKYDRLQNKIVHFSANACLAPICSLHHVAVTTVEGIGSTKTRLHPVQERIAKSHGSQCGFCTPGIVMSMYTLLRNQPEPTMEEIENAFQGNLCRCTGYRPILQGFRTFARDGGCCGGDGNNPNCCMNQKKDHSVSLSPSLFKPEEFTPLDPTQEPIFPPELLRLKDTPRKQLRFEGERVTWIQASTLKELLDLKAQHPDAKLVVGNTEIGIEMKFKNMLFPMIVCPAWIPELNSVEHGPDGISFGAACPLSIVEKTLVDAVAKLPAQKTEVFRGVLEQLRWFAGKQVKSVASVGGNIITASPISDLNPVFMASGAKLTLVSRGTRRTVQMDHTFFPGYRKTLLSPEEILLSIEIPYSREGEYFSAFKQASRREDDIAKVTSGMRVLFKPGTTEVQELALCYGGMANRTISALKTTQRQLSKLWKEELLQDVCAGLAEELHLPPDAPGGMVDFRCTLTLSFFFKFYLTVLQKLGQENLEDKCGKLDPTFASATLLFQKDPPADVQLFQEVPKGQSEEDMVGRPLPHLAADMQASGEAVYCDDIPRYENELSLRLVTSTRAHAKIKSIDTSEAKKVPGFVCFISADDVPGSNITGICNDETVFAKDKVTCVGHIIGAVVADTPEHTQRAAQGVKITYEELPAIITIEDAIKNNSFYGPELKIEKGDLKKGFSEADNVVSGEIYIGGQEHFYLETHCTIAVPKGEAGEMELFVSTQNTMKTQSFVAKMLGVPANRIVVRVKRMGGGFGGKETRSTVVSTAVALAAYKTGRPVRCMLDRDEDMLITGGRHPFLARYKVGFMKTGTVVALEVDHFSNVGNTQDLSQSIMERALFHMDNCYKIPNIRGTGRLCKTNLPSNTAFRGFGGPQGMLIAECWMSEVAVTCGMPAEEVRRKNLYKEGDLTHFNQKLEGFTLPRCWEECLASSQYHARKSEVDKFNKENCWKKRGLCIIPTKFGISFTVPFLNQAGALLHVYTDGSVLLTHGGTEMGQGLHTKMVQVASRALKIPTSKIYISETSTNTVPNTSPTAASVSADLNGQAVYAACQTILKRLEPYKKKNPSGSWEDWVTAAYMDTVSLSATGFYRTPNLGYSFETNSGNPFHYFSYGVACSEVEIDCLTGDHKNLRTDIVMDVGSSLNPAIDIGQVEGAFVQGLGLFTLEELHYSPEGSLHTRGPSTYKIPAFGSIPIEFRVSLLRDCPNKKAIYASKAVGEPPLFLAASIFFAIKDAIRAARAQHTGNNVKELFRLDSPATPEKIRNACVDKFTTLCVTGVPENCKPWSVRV

| SMILES | IC50 [1] [µM] | IC50 [2] [µM] | Inhibition [3] [%] |
| --- | --- | --- | --- |
| O=[N+]([O-])c1ccc(O)c(O)c1 [4-Nitrocatechol] | 250 | 130 | 9 |
| O=[N+]([O-])c1cccc(O)c1O | 250 | 180 | 5 |
| Oc1ccccc1O [CATECHOL] | 30 | – | 5 |
| O=C(O)/C=C/c1ccc(O)c(O)c1[N+](=O)[O-] | 35 | 425 | 61 |

Further compounds by falling IC50 [1], results first:

| IC50 [1] [µM] | IC50 [2] [µM] | Inhibition [3] [%] | SMILES |
| --- | --- | --- | --- |
| 1000 | 85 | 12 | O=[N+]([O-])c1cc(O)ccc1O |
| 500 | 300 | – | CC(=O)C(Cc1cc(O)c(O)c([N+](=O)[O-])c1)C(C)=O |
| 185 | 400 | 70 | O=C(O)/C=C/c1cc(O)c(O)c([N+](=O)[O-])c1 |
| 150 | 250 | 36 | O=C(O)/C=C/c1cc(O)c(O)cc1[N+](=O)[O-] |
| 95 | – | 18 | O=C(O)/C=C/c1ccc(O)c(O)c1 [CAFFEIC ACID] |

— ChEMBL document CHEMBL1128977, “Antioxidant properties of nitrocaffeic acids” (Bioorg Med Chem Lett, 1996)
